Data published in the supplement of paper PMC10307832.

Key:
Assay in all cases: relative viability (nuclei count vs DMSO), 5 days (fraction); higher = more cells survive
[1] = compound: CO[C@@H]1[C@H](N(C)C(=O)c2ccccc2)C[C@H]2O[C@]1(C)n1c3ccccc3c3c4c(c5c6ccccc6n2c5c31)C(=O)NC4 [Midostaurin] + CC(=O)Nc1cccc(-n2c(=O)n(C3CC3)c(=O)c3c(Nc4ccc(I)cc4F)n(C)c(=O)c(C)c32)c1 [Trametinib] (partner 0.02 µM)
How it was run: (§1)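 Lung cancer cell lines in 1536-well plates were dosed by pin tool the day after seeding, either with one drug alone or with a fixed anchor-drug dose plus five library-drug doses (not always all listed) in √10 steps. After 5 days, cells were fixed and their nuclei stained in one step (final 0.05% Triton X-100, 1% formaldehyde, 1 ug/ml Hoechst), then counted on 4× images. Relative viability is the nuclei count in treated wells divided by that in vehicle wells. Values are medians of duplicate plates.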

[2] = compound: CO[C@@H]1[C@H](N(C)C(=O)c2ccccc2)C[C@H]2O[C@]1(C)n1c3ccccc3c3c4c(c5c6ccccc6n2c5c31)C(=O)NC4 [Midostaurin] + CS(=O)(=O)CCNCc1ccc(-c2ccc3ncnc(Nc4ccc(OCc5cccc(F)c5)c(Cl)c4)c3c2)o1 [Lapatinib] (partner 2 µM)
How it was run: as §1

[3] = compound: CO[C@@H]1[C@H](N(C)C(=O)c2ccccc2)C[C@H]2O[C@]1(C)n1c3ccccc3c3c4c(c5c6ccccc6n2c5c31)C(=O)NC4 [Midostaurin] + CS(=O)(=O)N1CCN(Cc2cc3nc(-c4cccc5[nH]ncc45)nc(N4CCOCC4)c3s2)CC1 [Pictilisib] (partner 1 µM)
How it was run: as §1

[4] = compound: CO[C@@H]1[C@H](N(C)C(=O)c2ccccc2)C[C@H]2O[C@]1(C)n1c3ccccc3c3c4c(c5c6ccccc6n2c5c31)C(=O)NC4 [Midostaurin] + NC(=O)Nc1cc(-c2cccc(F)c2)sc1C(=O)N[C@H]1CCCNC1 [AZD7762] (partner 0.2 µM)
How it was run: as §1

[5] = compound: COc1cc(-c2nn([C@H]3CC[C@H](N4CCN(C(C)=O)CC4)CC3)c3ncnc(N)c23)ccc1NC(=O)c1cc2ccccc2n1C + N=C(N)NC(=N)NCCc1ccccc1 [Phenformin] (partner 250 µM)
How it was run: as §1

Row | Cell Line | relative viability ([1]; first compound 0.01 µM) | relative viability ([1]; first compound 0.03162 µM) | relative viability ([1]; first compound 0.1 µM) | relative viability ([1]; first compound 0.3162 µM) | relative viability ([2]; first compound 0.01 µM) | relative viability ([2]; first compound 0.03162 µM) | relative viability ([2]; first compound 0.1 µM) | relative viability ([2]; first compound 0.3162 µM) | relative viability ([3]; first compound 0.01 µM) | relative viability ([3]; first compound 0.03162 µM) | relative viability ([3]; first compound 0.1 µM) | relative viability ([3]; first compound 0.3162 µM) | relative viability ([4]; first compound 0.01 µM) | relative viability ([4]; first compound 0.03162 µM) | relative viability ([4]; first compound 0.1 µM) | relative viability ([4]; first compound 0.3162 µM) | relative viability ([5]; first compound 0.0128 µM) | relative viability ([5]; first compound 0.04048 µM) | relative viability ([5]; first compound 0.128 µM) | relative viability ([5]; first compound 1.28 µM)
1 | H3255 | 0.61 | 0.608 | 0.656 | 0.628 | 0.35 | 0.282 | 0.259 | 0.22 | 0.503 | 0.487 | 0.471 | 0.459 | 0.857 | 0.786 | 0.915 | 0.89 | 0.347 | 0.297 | 0.36 | 0.282
2 | NCI-H1437 | 0.615 | 0.502 | 0.588 | 0.518 | 0.808 | 0.848 | 0.773 | 0.882 | 0.58 | 0.567 | 0.567 | 0.599 | 1.14 | 1.1 | 1.06 | 1.11 | 0.429 | 0.303 | 0.331 | 0.287
3 | LU99A | 0.592 | 0.558 | 0.421 | 0.456 | 0.983 | 1.04 | 1.02 | 0.993 | 0.299 | 0.316 | 0.302 | 0.245 | 0.29 | 0.441 | 0.303 | 0.255 | 0.938 | 0.59 | 0.85 | 0.882
4 | HCC-827 | 0.557 | 0.488 | 0.607 | 0.641 | 0.198 | 0.225 | 0.204 | 0.225 | 1.03 | 1 | 1.16 | 1.25 | 0.246 | 0.206 | 0.237 | 0.215 | 0.384 | 0.396 | 0.406 | 0.39
5 | LK-2 | 0.767 | 0.713 | 0.855 | 0.618 | 0.916 | 0.901 | 0.921 | 0.822 | 0.592 | 0.555 | 0.586 | 0.599 | 0.494 | 0.408 | 0.346 | 0.679 | 0.423 | 0.38 | 0.408 | 0.485
6 | HCC-366 | 0.304 | 0.33 | 0.283 | 0.122 | 1.01 | 1.04 | 1.04 | 1.13 | 0.167 | 0.116 | 0.142 | 0.137 | 0.235 | 0.373 | 0.273 | 0.0975 | 0.566 | 0.664 | 0.623 | 0.658
7 | BEN | 1.05 | 0.976 | 1.06 | 1.25 | 0.718 | 0.719 | 0.777 | 0.815 | 0.65 | 0.584 | 0.608 | 0.652 | 0.743 | 0.659 | 0.722 | 0.726 | 0.235 | 0.272 | 0.276 | 0.218
